Experimental findings from US20130344026A1, “Dimeric Smac Mimetics” (priority 2009, published 2013) are described below.

One may read the IC50 as the midpoint of a concentration-inhibition curve.

Each structure is given as a SMILES string. *1 amine or outer side, *2 acyl side, *3 side chain or, on linkers, in order; H or OH if unused. Where a SMILES comes first, the peptide text is derived from it. Bridges are numbered along the chain shown (N, C = ends). Roman numbers before positions name the chains, in order. [ ]: non-standard residue; d: D form. NH(CH2)8NH = C(CCCCN[*:2])CCCN[*:1]; Chg = N[C@H](C(=O)O)C1CCCCC1; Tle = CC(C)(C)[C@H](N)C(=O)O; NMeA = CN[C@@H](C)C(=O)O

The subject of one assay is HCC461. Nature of the assay: cell viability assay in HCC461, compound alone. The class given is cell-based. The conditions noted are these: HCC461, HCC461; Tables 6-9; read-out: IC50 (μM) in cell viability assay in HCC461.
Consider `CN[C@@H](C)C(=O)N[C@@H](C(C)C)C(C)N[C@@H](CNC(=O)c1cccc(C(=O)N[C@H]2C[C@@H](C(=O)N[C@@H]3CCCc4ccccc43)N(C(=O)[C@@H](NC(=O)[C@H](C)NC)C(C)(C)C)C2)c1)C(=O)N[C@H](C)C(C)C` (stereo partly shown) [Compound 136], for which the IC50 was above 30 µM.
`CN[C@@H](C)C(=O)N[C@@H](CCCCNC(=O)c1cccc(C(=O)N[C@H]2C[C@@H](C(=O)N[C@@H]3CCCc4ccccc43)N(C(=O)[C@@H](NC(=O)[C@H](C)NC)C(C)(C)C)C2)c1)C(=O)N1CCCC[C@H]1C(=O)N[C@@H]1CCCc2ccccc21` [Compound 143]: the IC50 was found to be 0.027 µM.
Take `CN[C@@H](C)C(=O)N[C@H](C(=O)N1C[C@@H](NC(=O)CC[C@@H](NC(=O)[C@H](NC(=O)[C@@H](C)NC)C(C)C)C(=O)N[C@@H](C)C(C)C)C[C@H]1C(=O)N[C@H](C)C(C)C)C(C)(C)C` [Compound 160]: the half-inhibitory concentration (IC50) stood at 29.4 µM.
For the compound `CN[C@@H](C)C(=O)N[C@@H](CC#CC#CC[C@H](NC(=O)[C@H](C)NC)C(=O)N1CSC[C@H]1C(=O)N[C@@H]1CCCc2ccccc21)C(=O)N1CSC[C@H]1C(=O)N[C@@H]1CCCc2ccccc21` [Compound 88], the concentration for half-maximal inhibition (IC50) turned out to be 0.188 µM.
Regarding `CN[C@@H](C)C(=O)N[C@H](C(=O)N1C[C@@H](NC(=O)c2cccc(C(=O)N[C@H]3C[C@@H](C(=O)N[C@H](C)C(C)C)N(C(=O)[C@@H](NC(=O)[C@H](C)NC)C(C)(C)C)C3)c2)C[C@H]1C(=O)N[C@@H]1CCCc2ccccc21)C(C)(C)C` [Compound 132], the 50% inhibitory concentration (IC50) was 0.017 µM.

The same assay, now with this note: HCC461, HCC461; Tables 15-18; read-out: IC50 (uM) in cell viability assay in HCC461.
For `CN[C@@H](C)C(=O)N[C@@H](CCCCNC(=O)c1cc(O)cc(C(=O)NCCCC[C@H](NC(=O)[C@H](C)NC)C(=O)N2CCC[C@H]2C(=O)N[C@@H]2CCCc3ccccc32)c1)C(=O)N1CCC[C@H]1C(=O)N[C@@H]1CCCc2ccccc21` [Compound P2-25], the IC50 was determined as 0.086 µM.
Same read-out and setting: next, `CN[C@@H](C)C(=O)N[C@H](C(=O)N1CCC[C@H]1Cn1nnnc1SC(C)(C)C)[C@@H](C)OCC#CC#CCO[C@H](C)[C@H](NC(=O)[C@H](C)NC)C(=O)N1CCC[C@H]1Cn1nnnc1SC(C)(C)C` [Compound P2-21]: 0.24 µM; `CN[C@@H](C)C(=O)N[C@H](C(=O)N1CCC[C@H]1C(=O)N[C@H](CNC(=O)c1ccc(C(=O)NC[C@@H](NC(=O)[C@@H]2CCCN2C(=O)[C@@H](NC(=O)[C@H](C)NC)C(C)(C)C)C2CCCCC2)cc1)C1CCCCC1)C(C)(C)C` [Compound P4-8]: 0.2 µM; `CN[C@@H](C)C(=O)N[C@@H](COCC#CC#CCOC[C@H](NC(=O)[C@H](C)NC)C(=O)N1CCCC1C(=O)N[C@@H]1CCCc2ccccc21)C(=O)N1CCCC1C(=O)N[C@@H]1CCCc2ccccc21` (stereo partly shown) [Compound P2-19]: 0.025 µM.
Same read-out and setting: next, `CN[C@@H](C)C(=O)N[C@@H](CCCCNC(=O)c1cc(N)cc(C(=O)NCCCC[C@H](NC(=O)[C@H](C)NC)C(=O)N2CCC[C@H]2C(=O)N[C@@H]2CCCc3ccccc32)c1)C(=O)N1CCC[C@H]1C(=O)N[C@@H]1CCCc2ccccc21` [Compound P2-24]: 0.121 µM; `CN[C@@H](C)C(=O)N[C@H](C(=O)N1CCC[C@H]1C(=O)N[C@H](C(=O)NCCCCCCCCNC(=O)[C@@H](NC(=O)[C@@H]1CCCN1C(=O)[C@@H](NC(=O)[C@H](C)NC)C(C)(C)C)C1CCCCC1)C1CCCCC1)C(C)(C)C` [Compound P4-7] (I: H-[NMeA][Tle]P[Chg] / II: H-[NMeA][Tle]P[Chg]; linker I:C-II:C via NH(CH2)8NH): 0.205 µM; `CN[C@@H](C)C(=O)N[C@@H](CCCCCC[C@H](NC(=O)[C@H](C)NC)C(=O)N1CCC[C@H]1C(=O)N(C)Cc1ccccc1)C(=O)N1CCC[C@H]1C(=O)N(C)Cc1ccccc1` [Compound P2-4]: 0.037 µM.
The same measure, in the same setting: the same measure for `CN[C@@H](C)C(=O)N[C@@H](CCCCCC[C@H](NC(=O)[C@H](C)NC)C(=O)N1C[C@@H](NS(=O)(=O)c2ccccc2)C[C@H]1C(=O)N[C@@H]1CCCc2ccccc21)C(=O)N1C[C@@H](NS(=O)(=O)c2ccccc2)C[C@H]1C(=O)N[C@@H]1CCCc2ccccc21` [Compound P2-14]: 0.092 µM.

The same assay, now with this note: HCC461, HCC461 cells, compound alone; read-out: IC50 (uM) in cell viability assay in HCC461.
With `CN[C@@H](C)C(=O)N[C@H](C(=O)N1C[C@@H](N2CC(CCCC3CN([C@H]4C[C@@H](C(=O)NC5c6ccccc6-c6ccccc65)N(C(=O)[C@@H](NC(=O)[C@H](C)NC)C(C)(C)C)C4)N=N3)N=N2)C[C@H]1C(=O)NC1c2ccccc2-c2ccccc21)C(C)(C)C` (stereo partly shown) [Compound P3-6], the IC50 was 0.007 µM.
Still for that read-out and setting: next, `CN[C@@H](C)C(=O)N[C@H](C(=O)N1C[C@@H](NC(=O)[C@H]2CC[C@H](C(=O)N[C@H]3C[C@@H](C(=O)N[C@@H]4CCCc5ccccc54)N(C(=O)[C@@H](NC(=O)[C@H](C)NC)C(C)(C)C)C3)CC2)C[C@H]1C(=O)N[C@@H]1CCCc2ccccc21)C(C)(C)C` [Compound P3-31]: 0.002 µM; `C#CC[C@H](NC(=O)[C@H](C)NC)C(=O)N1C[C@@H](NC(=O)c2cccc(C(=O)N[C@H]3C[C@@H](C(=O)N[C@@H]4CCCc5ccccc54)N(C(=O)[C@H](CC#C)NC(=O)[C@H](C)NC)C3)c2)C[C@H]1C(=O)N[C@@H]1CCCc2ccccc21` [Compound P3-12]: 0.047 µM.
Still for that read-out and setting: the same measure for `CN[C@@H](C)C(=O)N[C@H](C(=O)N1C[C@@H](n2cc(CCCc3cn([C@H]4C[C@@H](C(=O)N[C@H](C)c5ccccc5)N(C(=O)[C@@H](NC(=O)[C@H](C)NC)C(C)(C)C)C4)nn3)nn2)C[C@H]1C(=O)N[C@H](C)c1ccccc1)C(C)(C)C` [Compound P3-87]: 0.028 µM.
The same measure, in the same setting: next, `CN[C@@H](C)C(=O)N[C@H](C(=O)N1C[C@@H](Oc2cccc(O[C@H]3C[C@@H](C(=O)NC4CCCc5ccccc54)N(C(=O)[C@@H](NC(=O)[C@H](C)NC)C(C)(C)C)C3)c2)C[C@H]1C(=O)NC1CCCc2ccccc21)C(C)(C)C` (stereo partly shown) [Compound P3-25]: 0.007 µM.
As to `CN[C@@H](C)C(=O)N[C@H](C(=O)N1C[C@@H](NC(=O)c2cccc(C(=O)N[C@H]3C[C@@H](C(=O)N(C)Cc4ccccc4)N(C(=O)[C@@H](NC(=O)[C@H](C)NC)C(C)(C)C)C3)c2)C[C@H]1C(=O)N(C)Cc1ccccc1)C(C)(C)C` [Compound P3-49], the IC50 amounted to 0.141 µM.
Take `CN[C@@H](C)C(=O)N[C@H](C(=O)N1C[C@@H](NC(=O)c2ccccc2C(=O)N[C@H]2C[C@@H](C(=O)N[C@@H]3CCCc4ccccc43)N(C(=O)[C@@H](NC(=O)[C@H](C)NC)C(C)(C)C)C2)C[C@H]1C(=O)N[C@@H]1CCCc2ccccc21)C(C)(C)C` [Compound P3-20]: the IC50 is 0.008 µM.
In the case of `CN[C@@H](C)C(=O)N[C@H](C(=O)N1C[C@@H](NC(=O)c2ccc3cc(C(=O)N[C@H]4C[C@@H](C(=O)N[C@@H]5CCCc6ccccc65)N(C(=O)[C@@H](NC(=O)[C@H](C)NC)C(C)(C)C)C4)ccc3c2)C[C@H]1C(=O)N[C@@H]1CCCc2ccccc21)C(C)(C)C` [Compound P3-38], the IC50 stood at 0.007 µM.
On the same count and under the same terms, next, `CC[C@H](C)[C@H](NC(=O)[C@H](C)NC)C(=O)N1C[C@@H](NC(=O)/C=C/C(=O)N[C@H]2C[C@@H](C(=O)N[C@H](C)c3ccccc3)N(C(=O)[C@@H](NC(=O)[C@H](C)NC)[C@@H](C)CC)C2)C[C@H]1C(=O)N[C@H](C)c1ccccc1` [Compound P3-76]: 0.036 µM.
Still for that read-out and setting: next, `CN[C@@H](C)C(=O)N[C@H](C(=O)N1C[C@@H](NC(=O)c2cc(N)cc(C(=O)N[C@H]3C[C@@H](C(=O)N[C@H](C)C4CCCCC4)N(C(=O)[C@@H](NC(=O)[C@H](C)NC)C(C)(C)C)C3)c2)C[C@H]1C(=O)N[C@H](C)C1CCCCC1)C(C)(C)C` [Compound P3-44]: 0.04 µM; `CN[C@@H](C)C(=O)N[C@H](C(=O)N1C[C@@H](NC(=O)c2cc(C(=O)N[C@H]3C[C@@H](C(=O)N[C@H](C)c4ccccc4)N(C(=O)[C@@H](NC(=O)[C@H](C)NC)C4CCCCC4)C3)[nH]n2)C[C@H]1C(=O)N[C@H](C)c1ccccc1)C1CCCCC1` [Compound P3-79]: 0.057 µM; `C#CC[C@H](NC(=O)[C@H](C)NC)C(=O)N1C[C@@H](NC(=O)c2cc(N)cc(C(=O)N[C@H]3C[C@@H](C(=O)N[C@@H]4CCCc5ccccc54)N(C(=O)[C@H](CC#C)NC(=O)[C@H](C)NC)C3)c2)C[C@H]1C(=O)N[C@@H]1CCCc2ccccc21` [Compound P3-62]: 0.198 µM.
The same measure, in the same setting: the same measure for `CN[C@@H](C)C(=O)N[C@H](C(=O)N1C[C@@H](NC(=O)C[C@H](NC(=O)OCC2c3ccccc3-c3ccccc32)C(=O)N[C@H]2C[C@@H](C(=O)N[C@@H]3CCCc4ccccc43)N(C(=O)[C@@H](NC(=O)[C@H](C)NC)C(C)(C)C)C2)C[C@H]1C(=O)N[C@@H]1CCCc2ccccc21)C(C)(C)C` [Compound P3-66]: 0.258 µM.

The same assay, now with this note: HCC461; Tables 15-18; read-out: IC50 (uM) in cell viability assay in HCC461.
As for `CC[C@H](NC)C(=O)N[C@@H](CC#CC#CC[C@H](NC(=O)[C@H](CC)NC)C(=O)N1CCC[C@H]1C(=O)N[C@@H]1CCCc2ccccc21)C(=O)N1CCC[C@H]1C(=O)N[C@@H]1CCCc2ccccc21` [Compound P2-8], the concentration for half-maximal inhibition (IC50) turned out to be 0.009 µM.
Same read-out and setting: the same measure for `CC[C@H](NC)C(=O)N[C@@H](CC#CC#CC[C@H](NC(=O)[C@H](CC)NC)C(=O)N1CCC[C@H]1C(=O)N[C@@H]1CCCc2ccccc21)C(=O)N1CCC[C@H]1C(=O)N[C@@H]1CCCc2ccccc21` [Compound P2-9]: 0.025 µM; for `CN[C@@H](C)C(=O)N[C@@H](CC#CC#CC[C@H](NC(=O)[C@H](C)NC)C(=O)N1C[C@@H](NC(C)c2ccccc2)C[C@H]1C(=O)N[C@@H]1CCCc2ccccc21)C(=O)N1C[C@@H](NC(=O)c2ccccc2)C[C@H]1C(=O)N[C@@H]1CCCc2ccccc21` (stereo partly shown) [Compound P2-10]: 0.109 µM.

Still in this assay, the particulars now being: HCC461 cells, compound alone; read-out: IC50 (uM) in cell viability assay in HCC461.
Take `CN[C@@H](C)C(=O)N[C@H](C(=O)N1C[C@@H](NC(=O)c2cccc(C(=O)N[C@H]3C[C@@H](C(=O)NC4CCCC5CCCCC54)N(C(=O)[C@@H](NC(=O)[C@H](C)NC)C(C)(C)C)C3)c2)C[C@H]1C(=O)NC1CCCC2CCCCC21)C(C)(C)C` (stereo partly shown) [Compound P3-57]: the IC50 was determined as 1.69 µM.
As for `CN[C@@H](C)C(=O)N[C@H](C(=O)N1C[C@@H](NC(=O)C2CCCC(C(=O)N[C@H]3C[C@@H](C(=O)NC4CCCc5ccccc54)N(C(=O)[C@@H](NC(=O)[C@H](C)NC)C(C)(C)C)C3)C2)CC1C(=O)N[C@@H]1CCCc2ccccc21)C(C)(C)C` (stereo partly shown) [Compound P3-17], the IC50 was determined as 0.002 µM.
